Laboratory results as given in patent publication US10392422B2, “Macrocyclic broad spectrum antibiotics” (priority 2014, dated 2019).
Values after ≈ are worked out from the molar mass of the structure shown. Like-named read-outs stand apart in the source and are kept apart here.

Tests used:
Assay in all cases: MIC, broth micro-dilution technique (CLSI)
[1] = system: Methicillin Resistant Staphylococcus aureus strain USA 300 (NRS384); assay type: cell-based; settings: for MIC: Staphylococcus aureus, 22 h, read-out: MIC (μg/mL) S. aureus
Outline: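 CLSI broth microdilution in cation-adjusted Mueller Hinton broth with 0.002% v/v Tween-80. Compounds were serially 2-fold diluted over 10 concentrations from 64 μg/ml, or from 4 μg/mL in a modified protocol; inoculum at final OD600 0.0005, incubated 35° C for 22 hours.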

[2] = system: Escherichia coli MC4100 harboring the IMP4213; assay type: cell-based; settings: for MIC: Escherichia coli, 22 h; for MIC (μg/mL) E. coli: Table 1 protocol: serial 2-fold dilutions starting from 64 μg/ml
Outline: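 Susceptibility is tested by broth micro-dilution per CLSI, using ten serial 2-fold dilutions beginning at 64 μg/ml or, in a modified version, 4 μg/mL. The E. coli MC4100 strain carries an imp allele raising outer-membrane permeability.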

MRSA COL (NRS100) = assay type: cell-based, Staphylococcus aureus; settings: for MIC: Staphylococcus aureus, 22 h, read-out: MIC (μg/mL) (COL)
Protocol: In vitro antimicrobial activity of each compound was determined by measuring minimal inhibitor concentrations (MICs) using the broth micro-dilution technique as approved by the Clinical and Laboratory Standards Institute (CLSI) (Methods for Dilution Antimicrobial Susceptibility Tests for Bacteria that Grow Aerobically; Approved Standard—Eighth Edition. CLSI document M07-A8. Wayne, Pa.: Clinical and Laboratory Standards; 2009). Antibacterial activity was measured against three strains of bacteria: a Methicillin Resistant Staphylococcus aureus strain USA 300 (NRS384); a MRSA COL (NRS100), another Methicillin Resistant Staphylococcus aureus strain; and a strain of Escherichia coli MC4100 harboring the IMP4213, which results in increased outer-membrane permeability (B Martin and Silhavy T. Imp/OstA is required for cell envelope biogenesis in Escherichia coli. (2002) Molecular Microbiology, 45(5), 1289-1302). Cells were inoculated onto plates of Trypyticase Soy Agar or Luria Agar respectively and grown at 35° C. for 20 hours. Inocula suspensions were prepared by scraping cells into 1 ml of testing media (cation adjusted Mueller Hinton Broth supplemented with 0.002% v/v Tween-80) and diluting to a final OD600 nm of 0.01.
Test compounds were prepared in DMSO at a concentration of 10 mg/ml. These compound stocks were diluted into testing media at a concentration of 64 μg/ml and serial 2-fold dilutions were made in the same media, in 96-well U bottom microtiter dishes, for a total of 10 compound concentrations (Table 1). In modified protocols (Table 2), compound stocks were diluted into testing media at a concentration of 4 μg/mL and serial 2-fold dilutions were made in the same media, in 96-well U bottom microtiter dishes, for a total of 10 compound concentrations. Inocula suspensions were added to the 2-fold serial dilutions of test compounds to a final density of OD OD600 nm of 0.0005 and incubated at 35° C. for 22 hours. […] The results from the protocol starting from a concentration of 64 µg/mL are listed in Table 1 and the results from the modified protocol are shown in Table 2.

[3] = read-out: MIC (μg/mL) E. coli, Table 1 protocol: serial 2-fold dilutions starting from 64 μg/ml, 35° C., 22 hours
[4] = Table 1 protocol: serial 2-fold dilutions starting from 64 μg/ml, 35° C., 22 hours

SMILES	MIC [1] [µg/mL]	MIC [2, 3] [µg/mL]	MIC (MRSA COL (NRS100)) [µg/mL]	MIC [1, 4] [µg/mL]	MIC (MRSA COL (NRS100); [4]) [µg/mL]	further results
C[C@@H]1NC(=O)[C@@H](N(C)C(=O)[C@H](CCCCN)NC(=O)c2ccc(-c3ccc(Cl)cc3)cc2)c2ccc(O)c(c2)-c2cc(ccc2O)C[C@@H](C(=O)N[C@@H](C)/C=C/S(C)(=O)=O)NC1=O [Compound 144]	8 (≈ 9.01 µM)	32 (≈ 36.1 µM)	2 (≈ 2.25 µM)	–	–	–
C[C@@H]1NC(=O)[C@@H](N(C)C(=O)[C@H](CCCCN)NC(=O)c2ccc(-c3ccc(Cl)cc3)cc2)c2ccc(O)c(c2)-c2cc(ccc2O)C[C@@H](C(=O)N[C@@H](C)/C=C\S(C)(=O)=O)NC1=O [Compound 145]	> 64	> 64	64 (≈ 72.1 µM)	–	–	–
C[C@H](NC(=O)CCC(=O)[C@H](C)NC(=O)[C@@H]1Cc2ccc(O)c(c2)-c2cc(ccc2O)[C@H](N(C)C(=O)[C@H](CCCCN)NC(=O)c2ccc(-c3ccc(Cl)cc3)cc2)C(=O)N[C@@H](C)C(=O)N1)C(=O)O [Compound 147]	> 64	> 64	> 64	–	–	–
CNC(=O)CCC(=O)[C@H](C)NC(=O)[C@@H]1Cc2ccc(O)c(c2)-c2cc(ccc2O)[C@H](N(C)C(=O)[C@H](CCCCN)NC(=O)c2ccc(-c3ccc(Cl)cc3)cc2)C(=O)N[C@@H](C)C(=O)N1 [Compound 149]	–	64 (≈ 71.4 µM)	–	> 64	64 (≈ 71.4 µM)	–
C[C@@H]1NC(=O)[C@@H](N(C)C(=O)[C@H](CCCCN)NC(=O)c2ccc(-c3ccc(Cl)cc3)cc2)c2ccc(O)c(c2)-c2cc(ccc2O)C[C@@H](C(=O)N[C@@H](C)C(=O)C(F)(F)C(=O)O)NC1=O [Compound 152]	–	–	–	–	–	MIC (μg/mL) S. aureus [1, 4]: 10 µg/mL (≈ 11 µM); MIC (μg/mL) E. coli ([2]; 35° C., 22 hours): 16 µg/mL (≈ 17.7 µM); MIC (μg/mL) (COL) (MRSA COL (NRS100); [4]): 4 µg/mL (≈ 4.42 µM)
C[C@@H]1NC(=O)[C@@H](N(C)C(=O)[C@H](CCCCN)NC(=O)c2ccc(-c3ccc(Cl)cc3)cc2)c2ccc(O)c(c2)-c2cc(ccc2O)C[C@@H](C(=O)N[C@@H](C)C(=O)N(C)[C@@H](CC(=O)O)C(N)=O)NC1=O [Compound 158]	23 (≈ 24.1 µM)	64 (≈ 67 µM)	8 (≈ 8.37 µM)	–	–	–
C[C@@H]1NC(=O)[C@@H](N(C)C(=O)[C@H](CCCCN)NC(=O)c2ccc(-c3ccc(Cl)cc3)cc2)c2ccc(O)c(c2)-c2cc(ccc2O)C[C@@H](C(=O)N[C@@H](C)C(=O)N(C)[C@@H](CCC(=O)O)C(N)=O)NC1=O [Compound 159]	–	32 (≈ 33 µM)	–	23 (≈ 23.7 µM)	8 (≈ 8.25 µM)	–
C[C@@H]1NC(=O)[C@@H](N(C)C(=O)[C@H](CCCCN)NC(=O)c2ccc(-c3ccc(Cl)cc3)cc2)c2ccc(O)c(c2)-c2cc(ccc2O)C[C@@H](C(=O)N[C@@H](C)C(=O)N2CCCC23CCNC3=O)NC1=O (stereo partly drawn) [Compound 160]	–	64 (≈ 67.4 µM)	–	> 64	> 64	–
C[C@@H]1NC(=O)[C@@H](N(C)C(=O)[C@H](CCCCN)NC(=O)c2ccc(-c3ccc(Cl)cc3)cc2)c2ccc(O)c(c2)-c2cc(ccc2O)C[C@@H](C(=O)N[C@@H](C)C(=O)N2CCCC23CCNC3=O)NC1=O (stereo partly drawn) [Compound 161]	–	–	–	–	–	MIC (μg/mL) S. aureus [1, 4]: 64 µg/mL (≈ 67.4 µM); MIC (μg/mL) E. coli ([2]; 35° C., 22 hours): 64 µg/mL (≈ 67.4 µM); MIC (μg/mL) (COL) (MRSA COL (NRS100); [4]): 32 µg/mL (≈ 33.7 µM)
C[C@H](NC(=O)[C@@H]1Cc2ccc(O)c(c2)-c2cc(ccc2O)[C@H](N(C)C(=O)[C@H](CCCCN)NC(=O)c2ccc(-c3ccc(Cl)cc3)cc2)C(=O)N[C@@H](C)C(=O)N1)C(=O)CNS(C)(=O)=O [Compound 162]	8 (≈ 8.71 µM)	32 (≈ 34.8 µM)	2 (≈ 2.18 µM)	–	–	–
CCCCCCCCCCNCCS(=O)(=O)N[C@@H](CCCCN)C(=O)N(C)[C@@H]1C(=O)N[C@@H](C)C(=O)N[C@H](C(=O)N[C@@H](C)C(C)=O)Cc2ccc(O)c(c2)-c2cc1ccc2O [Compound 163]	–	16 (≈ 18.6 µM)	–	0.13 (≈ 0.151 µM)	0.11 (≈ 0.128 µM)	–
C[C@H](NC(=O)[C@@H]1Cc2ccc(O)c(c2)-c2cc(ccc2O)[C@H](N(C)C(=O)[C@H](CCCCN)NC(=O)c2ccc(-c3ccc(Cl)cc3)cc2)C(=O)N[C@@H](C)C(=O)N1)C(=O)CP(=O)(O)O [Compound 166]	32 (≈ 35.3 µM)	–	8 (≈ 8.84 µM)	–	–	MIC ([2]; read-out: MIC (μg/mL) E. coli): > 64 µg/mL
COP(=O)(O)CC(=O)[C@H](C)NC(=O)[C@@H]1Cc2ccc(O)c(c2)-c2cc(ccc2O)[C@H](N(C)C(=O)[C@H](CCCCN)NC(=O)c2ccc(-c3ccc(Cl)cc3)cc2)C(=O)N[C@@H](C)C(=O)N1 [Compound 167]	16 (≈ 17.4 µM)	–	4 (≈ 4.35 µM)	–	–	MIC ([2]; read-out: MIC (μg/mL) E. coli): > 64 µg/mL
C[C@@H]1NC(=O)[C@@H](N(C)C(=O)[C@H](CCCCN)NC(=O)c2ccc(-c3ccc(Cl)cc3)cc2)c2ccc(O)c(c2)-c2cc(ccc2O)C[C@@H](C(=O)N[C@@H](C)C(=O)N2CSC[C@@H]2C(N)=O)NC1=O [Compound 175]	–	32 (≈ 34 µM)	–	> 64	32 (≈ 34 µM)	–
C[C@@H]1NC(=O)[C@@H](N(C)C(=O)[C@H](CCCCN)NC(=O)c2ccc(-c3ccc(Cl)cc3)cc2)c2ccc(O)c(c2)-c2cc(ccc2O)C[C@@H](C(=O)N[C@@H](C)C(=O)N2C[C@@H](O)C[C@H]2C(N)=O)NC1=O [Compound 177]	–	64 (≈ 68.1 µM)	–	16 (≈ 17 µM)	4 (≈ 4.26 µM)	–
C[C@H](NC(=O)[C@@H]1CCCN1C(=O)[C@H](C)NC(=O)[C@@H]1Cc2ccc(O)c(c2)-c2cc(ccc2O)[C@H](N(C)C(=O)[C@H](CCCCN)NC(=O)c2ccc(-c3ccc(Cl)cc3)cc2)C(=O)N[C@@H](C)C(=O)N1)C(N)=O [Compound 179]	32 (≈ 32.2 µM)	64 (≈ 64.4 µM)	16 (≈ 16.1 µM)	–	–	–
C[C@@H]1NC(=O)[C@@H](N(C)C(=O)[C@H](CCCCN)NC(=O)c2ccc(-c3ccc(Cl)cc3)cc2)c2ccc(O)c(c2)-c2cc(ccc2O)C[C@@H](C(=O)N[C@@H](C)C(=O)N(C)CC(N)=O)NC1=O [Compound 182]	–	64 (≈ 71.3 µM)	–	10 (≈ 11.1 µM)	2 (≈ 2.23 µM)	–
C[C@@H]1NC(=O)[C@@H](N(C)C(=O)[C@H](CCCCN)NC(=O)c2ccc(-c3ccc(Cl)cc3)cc2)c2ccc(O)c(c2)-c2cc(ccc2O)C[C@@H](C(=O)N[C@@H](C)C(=O)N(C)[C@@H](C)C(N)=O)NC1=O [Compound 183]	–	32 (≈ 35.1 µM)	–	8 (≈ 8.78 µM)	2.4 (≈ 2.63 µM)	–
C[C@@H]1NC(=O)[C@@H](N(C)C(=O)[C@H](CCCCN)NC(=O)c2ccc(-c3ccc(Cl)cc3)cc2)c2ccc(O)c(c2)-c2cc(ccc2O)C[C@@H](C(=O)N[C@@H](C)C(=O)N2CCC[C@H]2C(=O)NN)NC1=O [Compound 186]	–	> 64	–	45 (≈ 47.9 µM)	12 (≈ 12.8 µM)	–
CCCCCCCCCCNCCC(=O)N[C@@H](CCCCN)C(=O)N(C)[C@@H]1C(=O)N[C@@H](C)C(=O)N[C@H](C(=O)N[C@@H](C)C(=O)N(C)[C@H]2CCNC2=O)Cc2ccc(O)c(c2)-c2cc1ccc2OCCN [Compound 187]	–	23 (≈ 23.9 µM)	–	3.7 (≈ 3.84 µM)	0.5 (≈ 0.519 µM)	–
CC(NC(=O)[C@@H]1Cc2ccc(O)c(c2)-c2cc(ccc2O)[C@H](N(C)C(=O)[C@H](CCCCN)NC(=O)c2ccc(-c3ccc(Cl)cc3)cc2)C(=O)N[C@@H](C)C(=O)N1)C(=O)c1ncco1 (stereo partly drawn) [Compound 188]	–	11 (≈ 12.5 µM)	–	16 (≈ 18.2 µM)	4 (≈ 4.55 µM)	–
C[C@H](NC(=O)[C@@H]1Cc2ccc(O)c(c2)-c2cc(ccc2O)[C@H](N(C)C(=O)[C@H](CCCCN)NC(=O)c2ccc(-c3ccc(Cl)cc3)cc2)C(=O)N[C@@H](C)C(=O)N1)C(=O)CC(N)=O [Compound 189]	–	32 (≈ 36.8 µM)	–	5.7 (≈ 6.56 µM)	2 (≈ 2.3 µM)	–
CCCCCCCCCCNCCC(=O)N[C@@H](CCCCN)C(=O)N(C)[C@@H]1C(=O)N[C@@H](C)C(=O)N[C@H](C(=O)N[C@@H](C)C(=O)N2CCC[C@H]2C(N)=O)Cc2ccc(O)c(c2)-c2cc1ccc2OCCN [Compound 190]	–	32 (≈ 33.2 µM)	–	1.7 (≈ 1.76 µM)	0.25 (≈ 0.26 µM)	–
COC(=O)CC(=O)[C@H](C)NC(=O)[C@@H]1Cc2ccc(O)c(c2)-c2cc(ccc2O)[C@H](N(C)C(=O)[C@H](CCCCN)NC(=O)c2ccc(-c3ccc(Cl)cc3)cc2)C(=O)N[C@@H](C)C(=O)N1 [Compound 191]	–	> 64	–	32 (≈ 36.2 µM)	8 (≈ 9.06 µM)	–
